Reference: ChEMBL document CHEMBL4482303, “Test system for measuring mest activity as well as methods and uses involving the same” (2012)

Assays:
[1] = biological target: T1, Glycerol-3-phosphate acyltransferase 3 (Homo sapiens) (UniProt Q53EU6); experiment: (§1) Inhibition of GPAT3 (unknown origin) expressed in Sf9 cell membranes assessed as reduction in glycerol 3-phosphate acyltransferase activity at 3 uM using [3H]-glycerol 3-phosphate and palmitoyl CoA incubated for 60 mins by scintillation counting assay relative to control
T1 sequence (whole entry): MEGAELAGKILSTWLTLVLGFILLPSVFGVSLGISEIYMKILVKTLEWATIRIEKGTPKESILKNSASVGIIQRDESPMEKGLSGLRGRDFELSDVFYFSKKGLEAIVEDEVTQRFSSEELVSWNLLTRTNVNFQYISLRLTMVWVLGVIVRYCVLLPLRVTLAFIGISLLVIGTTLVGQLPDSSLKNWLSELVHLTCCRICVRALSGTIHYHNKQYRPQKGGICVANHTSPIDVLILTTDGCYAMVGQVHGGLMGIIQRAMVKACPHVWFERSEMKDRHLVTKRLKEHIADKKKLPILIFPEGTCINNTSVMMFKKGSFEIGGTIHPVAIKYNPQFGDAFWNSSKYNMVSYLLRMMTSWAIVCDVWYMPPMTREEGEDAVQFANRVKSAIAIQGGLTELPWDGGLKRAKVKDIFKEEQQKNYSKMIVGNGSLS

[2] = biological target: T1, Glycerol-3-phosphate acyltransferase 3 (Homo sapiens); experiment: Inhibition of GPAT3 (unknown origin) expressed in Sf9 cell membranes assessed as reduction in glycerol 3-phosphate acyltransferase activity at 1 uM using [3H]-glycerol 3-phosphate and palmitoyl CoA incubated for 60 mins by scintillation counting assay relative to control
[3] = biological target: T2, Mesoderm-specific transcript homolog protein (Homo sapiens) (UniProt Q5EB52); experiment: as §1, with “of human recombinant MEST T579B (2 to 335 amino acids)” for “of GPAT3 (unknown origin)”, “at 10” for “at 3”
T2 sequence (whole entry): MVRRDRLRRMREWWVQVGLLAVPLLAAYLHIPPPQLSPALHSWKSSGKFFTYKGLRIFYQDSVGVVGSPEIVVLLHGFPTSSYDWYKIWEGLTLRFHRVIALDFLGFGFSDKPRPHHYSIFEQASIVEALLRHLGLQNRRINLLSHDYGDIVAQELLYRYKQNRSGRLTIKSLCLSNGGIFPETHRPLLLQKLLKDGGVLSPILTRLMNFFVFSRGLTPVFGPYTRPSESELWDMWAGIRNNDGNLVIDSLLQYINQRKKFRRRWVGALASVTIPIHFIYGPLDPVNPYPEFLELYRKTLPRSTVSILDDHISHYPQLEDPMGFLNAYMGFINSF

[4] = biological target: T1, Glycerol-3-phosphate acyltransferase 3 (Homo sapiens); experiment: Inhibition of GPAT3 (unknown origin) expressed in Sf9 cell membranes assessed as reduction in glycerol 3-phosphate acyltransferase activity at 0.03 uM using [3H]-glycerol 3-phosphate and palmitoyl CoA incubated for 60 mins by scintillation counting assay relative to control
[5] = biological target: T2, Mesoderm-specific transcript homolog protein (Homo sapiens); experiment: (§2) Inhibition of human recombinant MEST T579B (2 to 335 amino acids) expressed in Sf9 cell membranes assessed as reduction in glycerol 3-phosphate acyltransferase activity at 3 uM using [3H]-glycerol 3-phosphate and palmitoyl CoA incubated for 60 mins by scintillation counting assay relative to control
[6] = biological target: T3, Glycerol-3-phosphate acyltransferase 4 (Homo sapiens) (UniProt Q86UL3); experiment: Inhibition of GPAT4 (unknown origin) expressed in Sf9 cell membranes assessed as reduction in glycerol 3-phosphate acyltransferase activity at 0.3 uM using [3H]-glycerol 3-phosphate and palmitoyl CoA incubated for 60 mins by scintillation counting assay relative to control
T3 sequence (whole entry): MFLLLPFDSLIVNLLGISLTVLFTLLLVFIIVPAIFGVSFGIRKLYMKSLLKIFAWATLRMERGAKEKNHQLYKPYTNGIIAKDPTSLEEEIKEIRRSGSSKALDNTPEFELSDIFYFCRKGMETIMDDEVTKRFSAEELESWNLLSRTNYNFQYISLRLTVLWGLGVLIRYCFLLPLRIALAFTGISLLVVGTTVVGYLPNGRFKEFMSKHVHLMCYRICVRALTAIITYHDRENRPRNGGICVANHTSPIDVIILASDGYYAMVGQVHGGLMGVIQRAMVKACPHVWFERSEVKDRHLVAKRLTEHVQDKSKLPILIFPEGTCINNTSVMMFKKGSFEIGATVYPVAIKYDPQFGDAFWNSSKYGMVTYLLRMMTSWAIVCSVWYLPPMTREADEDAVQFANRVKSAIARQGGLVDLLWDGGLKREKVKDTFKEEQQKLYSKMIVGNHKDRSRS

[7] = biological target: T2, Mesoderm-specific transcript homolog protein (Homo sapiens); experiment: as §2, with “at 0.1” for “at 3”
[8] = biological target: T3, Glycerol-3-phosphate acyltransferase 4 (Homo sapiens); experiment: Inhibition of GPAT4 (unknown origin) expressed in Sf9 cell membranes assessed as reduction in glycerol 3-phosphate acyltransferase activity at 1 uM using [3H]-glycerol 3-phosphate and palmitoyl CoA incubated for 60 mins by scintillation counting assay relative to control
[9] = biological target: T2, Mesoderm-specific transcript homolog protein (Homo sapiens); experiment: as §2, with “T580B (11” for “T579B (2”
[10] = biological target: T4, Glycerol-3-phosphate acyltransferase 1, mitochondrial (Homo sapiens) (UniProt Q9HCL2); experiment: Inhibition of GPAT1 (unknown origin) expressed in Sf9 cell membranes assessed as reduction in glycerol 3-phosphate acyltransferase activity at 0.03 uM using [3H]-glycerol 3-phosphate and palmitoyl CoA incubated for 60 mins by scintillation counting assay relative to control
T4 sequence (whole entry): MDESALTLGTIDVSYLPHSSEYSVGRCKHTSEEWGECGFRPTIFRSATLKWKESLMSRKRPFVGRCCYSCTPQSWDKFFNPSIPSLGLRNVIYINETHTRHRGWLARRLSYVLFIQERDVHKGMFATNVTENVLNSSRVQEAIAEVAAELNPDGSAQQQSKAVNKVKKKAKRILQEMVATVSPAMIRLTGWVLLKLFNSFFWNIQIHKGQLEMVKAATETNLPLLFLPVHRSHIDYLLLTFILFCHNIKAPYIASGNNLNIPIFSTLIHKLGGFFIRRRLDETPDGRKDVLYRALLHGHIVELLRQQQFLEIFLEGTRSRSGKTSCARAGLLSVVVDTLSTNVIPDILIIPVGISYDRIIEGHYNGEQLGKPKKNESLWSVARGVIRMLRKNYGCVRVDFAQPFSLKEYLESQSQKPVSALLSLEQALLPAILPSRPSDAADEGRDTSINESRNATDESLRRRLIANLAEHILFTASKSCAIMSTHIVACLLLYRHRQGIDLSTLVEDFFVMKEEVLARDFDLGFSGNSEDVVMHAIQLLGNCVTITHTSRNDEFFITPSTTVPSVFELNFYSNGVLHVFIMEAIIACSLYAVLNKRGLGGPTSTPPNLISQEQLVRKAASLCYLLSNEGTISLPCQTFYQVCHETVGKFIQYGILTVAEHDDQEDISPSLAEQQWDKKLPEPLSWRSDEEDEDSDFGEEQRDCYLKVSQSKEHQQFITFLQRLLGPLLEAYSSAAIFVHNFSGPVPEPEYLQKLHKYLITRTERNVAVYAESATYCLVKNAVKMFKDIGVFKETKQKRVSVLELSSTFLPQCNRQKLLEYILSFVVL

[11] = biological target: T3, Glycerol-3-phosphate acyltransferase 4 (Homo sapiens); experiment: Inhibition of GPAT4 (unknown origin) expressed in Sf9 cell membranes assessed as reduction in glycerol 3-phosphate acyltransferase activity at 0.03 uM using [3H]-glycerol 3-phosphate and palmitoyl CoA incubated for 60 mins by scintillation counting assay relative to control
[12] = biological target: T2, Mesoderm-specific transcript homolog protein (Homo sapiens); experiment: as §2, with “MEST T580B (11” for “MEST T579B (2”, “at 0.3” for “at 3”
[13] = biological target: T2, Mesoderm-specific transcript homolog protein (Homo sapiens); experiment: as §2, with “MEST T580B (11” for “MEST T579B (2”, “at 10” for “at 3”
[14] = biological target: T2, Mesoderm-specific transcript homolog protein (Homo sapiens); experiment: as §2, with “MEST T580B (11” for “MEST T579B (2”, “at 0.1” for “at 3”
[15] = biological target: T1, Glycerol-3-phosphate acyltransferase 3 (Homo sapiens); experiment: Inhibition of GPAT3 (unknown origin) expressed in Sf9 cell membranes assessed as reduction in glycerol 3-phosphate acyltransferase activity at 0.3 uM using [3H]-glycerol 3-phosphate and palmitoyl CoA incubated for 60 mins by scintillation counting assay relative to control
[16] = biological target: T4, Glycerol-3-phosphate acyltransferase 1, mitochondrial (Homo sapiens); experiment: Inhibition of GPAT1 (unknown origin) expressed in Sf9 cell membranes assessed as reduction in glycerol 3-phosphate acyltransferase activity at 3 uM using [3H]-glycerol 3-phosphate and palmitoyl CoA incubated for 60 mins by scintillation counting assay relative to control
[17] = biological target: T3, Glycerol-3-phosphate acyltransferase 4 (Homo sapiens); experiment: Inhibition of GPAT4 (unknown origin) expressed in Sf9 cell membranes assessed as reduction in glycerol 3-phosphate acyltransferase activity at 10 uM using [3H]-glycerol 3-phosphate and palmitoyl CoA incubated for 60 mins by scintillation counting assay relative to control
[18] = biological target: T2, Mesoderm-specific transcript homolog protein (Homo sapiens); experiment: as §2, with “at 0.03” for “at 3”
[19] = biological target: T2, Mesoderm-specific transcript homolog protein (Homo sapiens); experiment: (§3) Inhibition of human recombinant MEST T579B (2 to 335 amino acids) expressed in Sf9 cell membranes assessed as reduction in glycerol 3-phosphate acyltransferase activity at 1 uM using [3H]-glycerol 3-phosphate and palmitoyl CoA incubated for 60 mins by scintillation counting assay relative to control
[20] = biological target: T1, Glycerol-3-phosphate acyltransferase 3 (Homo sapiens); experiment: Inhibition of GPAT3 (unknown origin) expressed in Sf9 cell membranes assessed as reduction in glycerol 3-phosphate acyltransferase activity at 10 uM using [3H]-glycerol 3-phosphate and palmitoyl CoA incubated for 60 mins by scintillation counting assay relative to control
[21] = biological target: T2, Mesoderm-specific transcript homolog protein (Homo sapiens); experiment: as §2, with “at 0.3” for “at 3”
[22] = biological target: T4, Glycerol-3-phosphate acyltransferase 1, mitochondrial (Homo sapiens); experiment: Inhibition of GPAT1 (unknown origin) expressed in Sf9 cell membranes assessed as reduction in glycerol 3-phosphate acyltransferase activity at 10 uM using [3H]-glycerol 3-phosphate and palmitoyl CoA incubated for 60 mins by scintillation counting assay relative to control
[23] = biological target: T2, Mesoderm-specific transcript homolog protein (Homo sapiens); experiment: as §3, with “T580B (11” for “T579B (2”
[24] = biological target: T3, Glycerol-3-phosphate acyltransferase 4 (Homo sapiens); experiment: Inhibition of GPAT4 (unknown origin) expressed in Sf9 cell membranes assessed as reduction in glycerol 3-phosphate acyltransferase activity at 3 uM using [3H]-glycerol 3-phosphate and palmitoyl CoA incubated for 60 mins by scintillation counting assay relative to control
[25] = biological target: T4, Glycerol-3-phosphate acyltransferase 1, mitochondrial (Homo sapiens); experiment: Inhibition of GPAT1 (unknown origin) expressed in Sf9 cell membranes assessed as reduction in glycerol 3-phosphate acyltransferase activity at 0.1 uM using [3H]-glycerol 3-phosphate and palmitoyl CoA incubated for 60 mins by scintillation counting assay relative to control
[26] = biological target: T4, Glycerol-3-phosphate acyltransferase 1, mitochondrial (Homo sapiens); experiment: Inhibition of GPAT1 (unknown origin) expressed in Sf9 cell membranes assessed as reduction in glycerol 3-phosphate acyltransferase activity at 1 uM using [3H]-glycerol 3-phosphate and palmitoyl CoA incubated for 60 mins by scintillation counting assay relative to control
[27] = biological target: T2, Mesoderm-specific transcript homolog protein (Homo sapiens); experiment: as §2, with “MEST T580B (11” for “MEST T579B (2”, “at 0.03” for “at 3”
[28] = biological target: T3, Glycerol-3-phosphate acyltransferase 4 (Homo sapiens); experiment: Inhibition of GPAT4 (unknown origin) expressed in Sf9 cell membranes assessed as reduction in glycerol 3-phosphate acyltransferase activity at 0.1 uM using [3H]-glycerol 3-phosphate and palmitoyl CoA incubated for 60 mins by scintillation counting assay relative to control
[29] = biological target: T2, Mesoderm-specific transcript homolog protein (Homo sapiens); experiment: Inhibition of human recombinant MEST T579B (2 to 335 amino acids) expressed in Sf9 cell membranes assessed as reduction in glycerol 3-phosphate acyltransferase activity using [3H]-glycerol 3-phosphate and palmitoyl CoA incubated for 60 mins by scintillation counting assay
[30] = biological target: T4, Glycerol-3-phosphate acyltransferase 1, mitochondrial (Homo sapiens); experiment: Inhibition of GPAT1 (unknown origin) expressed in Sf9 cell membranes assessed as reduction in glycerol 3-phosphate acyltransferase activity at 0.3 uM using [3H]-glycerol 3-phosphate and palmitoyl CoA incubated for 60 mins by scintillation counting assay relative to control
[31] = biological target: T1, Glycerol-3-phosphate acyltransferase 3 (Homo sapiens); experiment: Inhibition of GPAT3 (unknown origin) expressed in Sf9 cell membranes assessed as reduction in glycerol 3-phosphate acyltransferase activity at 0.1 uM using [3H]-glycerol 3-phosphate and palmitoyl CoA incubated for 60 mins by scintillation counting assay relative to control

O=C(CO)COP(=O)(O)O
inhibition [1]: 38%
inhibition [2]: 26%
inhibition [3]: 69%
inhibition [4]: -9%
inhibition [5]: 51%
inhibition [6]: 15%
inhibition [7]: -6%
inhibition [8]: 9%
inhibition [9]: 45%
inhibition [10]: 4%
inhibition [11]: 6%
inhibition [12]: 8%
inhibition [13]: 76%
inhibition [14]: 10%
inhibition [15]: 12%
inhibition [16]: 47%
inhibition [17]: 54%
inhibition [18]: -5%
inhibition [19]: 27%
inhibition [20]: 57%
inhibition [21]: 24%
inhibition [22]: 72%
inhibition [23]: 18%
inhibition [24]: 29%
inhibition [25]: 10%
inhibition [26]: 29%
inhibition [27]: -6%
inhibition [28]: -2%
inhibition [29]: Dose-dependent effect
inhibition [30]: 11%
inhibition [31]: -4%
